B1: human AA3 (Homo sapiens) (protein)
chain: MCSLPVPREPLRRVAVTGGTHGNEMSGVYLARHWLHAPAELQRASFSAVPVLANPAATSGCRRYVDHDLNRTFTSSFLNSRPTPDDPYEVTRARELNQLLGPKASGQAFDFVLDLHNTTANMGTCLIAKSSHEVFAMHLCRHLQLQYPELSCQVFLYQRSGEESYNLDSVAKNGLGLELGPQPQGVLRADIFSRMRTLVATVLDFIELFNQGTAFPAFEMEAYRPVGVVDFPRTEAGHLAGTVHPQLQDRDFQPLQPGAPIFQMFSGEDLLYEGESTVYPVFINEAAYYEKGVAFVQTEKFTFTVPAMPALTPAPSPAS
notes: 6His (N); made in house; host or cells: E. coli

Key:
[1] = tested on: colon cancer cell lines COLO 205, HCT 116, LS 513; test: MTT cell viability, colon cancer cell lines; type: cell-based, human
Source text: (§1) Human colon cancer cell lines COLO 205, HCT 116, LS 513 (all ATCC), primary colon epithelial cells (Cell Biologics), pancreatic cancer cell lines PANC-1, MIA PaCa-2, BxPC-3, and normal pancreatic duct epithelial cells (UCLA collection) were used in experiments. COLO 205, LS 513, BxPC-3 cells were cultivated in RPMI 1640 medium with 10% FBS, HCT 116 cells were cultivated in McCoy's 5A medium with 10% FBS, PANC-1 and MIA PaCa-2 cell lines were cultivated in DMEM medium with 10% FBS, and normal colon and pancreatic cells were maintained in Human Epithelial Cell Medium (Cell Biologics).
(§2) HCC cell lines HepG2, HuH7, primary hepatocytes, colon cell lines COLO 205, HCT 116, LS 513, primary colon epithelial cells, pancreatic cancer cell lines PANC-1, MIA PaCa-2, BxPC-3, and normal pancreatic duct epithelial cells were seeded in 96-well plates at a density 10,000 cells per well in complete medium. Next day medium was changed to medium containing 1% FBS and an AA3 inhibitor (3-100 μM). 24 h later cell viability was determined using the MTT (3-(4,5-dimethylthiazol-2-yl)-2,5-diphenyltetrazolium bromide) cell viability assay. Cells were incubated during 4 h at 37° C. with 150 μl fresh media containing 0.5 mg/ml MTT. Then 50 μl of 20% SDS in 25 mM HCl was added to each well, incubated for 4 h and the optical density at 570 nm was measured on a VMax Kinetic Microplate Reader (Molecular Devices, Sunnyvale, Calif.).

[2] = tested on: pancreatic cancer cell lines PANC-1, MIA PaCa-2, BxPC-3; test: MTT cell viability, pancreatic cancer cell lines; type: cell-based, human; conditions: for efficiency for pancreatic cell lines: lines expressing either wild type (wt) or mutant (mut) KRas
Source text: as §1, §2

[3] = tested on: normal pancreatic duct epithelial cells; test: MTT cell viability, normal pancreatic cells; type: cell-based, human; conditions: for toxicity for normal vs cancer cell lines: pancreatic (FIG. 25)
Source text: as §1, §2

[4] = tested on: HepG2 cells; test: Levels of FC and NAFC in HepG2 cells (LC/MS); type: cell-based, human; conditions: for FC level / level of NAFC: HepG2, 10-20 μM inhibitor, 24 h, vs untreated; for [FC]/[NAFC] ratio: HepG2 treated cells (untreated ~8.4)
Experimental: (§3) HUH7 and HepG2 cells were seeded in 6-well plates at a density 250,000 cells per well in complete medium. Next day the medium was changed to 2 ml DMEM with 1% FBS containing a 10-20 μM AA3 inhibitor. After 24 h incubation, the medium was collected, concentrated 10 times on a vacuum concentrator; 10 μl aliquots were used for quantitation by LC/MS and LC/MS/MS-MRM. The cells were trypsinized, washed in PBS and centrifuged at 2,000 g for 10 min. Then cell pellet was lysed on ice in 50 μl of 20 mM Tris-HCl, pH 7.5, containing 1% dodecyl maltoside (DDM) and 1× protease inhibitor cocktail (Sigma/Aldrich). After centrifugation (14,000 g, 10 min) the supernatants were diluted 4 times with methanol and centrifuged (14,000 g, 10 min), then the supernatants were diluted 10 times with water, and 10 μl aliquots were used for quantitation by LC/MS and LC/MS/MS-MRM as described above expect electrospray ionization was used with an Agilent 6460 triple quadrupole mass spectrometer.

[5] = tested on: HuH7 cells; test: Levels of FC and NAFC in HuH7 cells (LC/MS); type: cell-based, human; conditions: for FC level decreased by / level of NAFC: HuH7, 10-20 μM inhibitor, 24 h, vs untreated; for [FC]/[NAFC] ratio: HuH7 treated cells (untreated ~2.8)
Experimental: as §3

[6] = tested on: membrane associated Ras in HepG2 cells; test: Membrane associated Ras in HepG2 cells (immunoblot); type: cell-based, human; conditions: HepG2, 24 h
Experimental: Cultured HCC cells and primary hepatocytes were washed with PBS buffer, treated with 0.25% Trypsin-EDTA solution (Corning) and precipitated at 1,000 rpm for 5 min. For protein extraction, HCC cells were lysed on ice by vortexing every 5 min for 30 min in RIPA buffer containing 20 mM Tris-HCl (pH 7.5), 150 mM NaCl, 5 mM EDTA, 1% Triton X-100, 0.5% sodium deoxycholate, 0.1% SDS, and 1× Halt protease inhibitor cocktail (Thermo Scientific, Waltham, Mass.). Prenylated Ras other membrane associated proteins were extracted from HCC cells using a Mem-PER Plus Kit (Thermo Scientific) according to the manufacturer's protocol. […]
HepG2 cells were seeded in 6-well plates at a density 250,000 cells per well. […] 24 h later cells were collected, washed with PBS and the membrane associated Ras proteins were extracted as described above, resolved on SDS-PAGE, and detected with the anti-Ras antibody (EMD Millipore).
To study the effect of AA3 suppression on Ras membrane association, HepG2 and HuH7 cells seeded onto 6-well plates at the same density, were transfected with 50 pmol ACY3 (AA3) Silencer Select Pre-designed siRNA (Invitrogen, Grand Island, N.Y.) using the Lipofectamine RNAiMAX reagent (Invitrogen) following the manufacturer protocol. […] After 48 h incubation, membrane associated proteins were extracted and membrane associated Ras was determined by immunoblotting as described above.

[7] = tested on: HepG2 cells; test: MTT cell viability, HepG2; type: cell-based, human; conditions: HepG2, within the micromolar range, 24 h
Experimental: as §2
(§4) To study the effect of AA3 silencing, HepG2 and HUH7 cells seeded in 96-well plates were transfected with 2 pmol AA3 siRNA using the Lipofectamine RNAiMAX reagent as per the manufacturer protocol. Cell viability was measured in the MTT assay 48 h later as described.

[8] = tested on: HuH7 cells; test: MTT cell viability, HuH7; type: cell-based, human; conditions: HuH7, within the micromolar range, 24 h
Experimental: as §2, §4

[9] = tested on: normal primary hepatocytes; test: MTT cell viability, normal primary hepatocytes; type: cell-based; conditions: inhibitor 10: 0-50 μM range; inhibitor 11: in comparison with HCC cell lines
Experimental: as §2, §4

[10] = tested on: primary colon epithelial cells; test: MTT cell viability, normal colon cells; type: cell-based, human; conditions: colon (FIG. 24)
Source text: as §1
as §2, with “Cells were incubated during 4 h at 37° C. with 150 μl fresh media containing 0.5 mg/ml MTT.” left out

[11] = target: T1, mAA3 (Mus musculus, UniProt Q91XE4); conditions: substrate of mAA3; cited from earlier work
T1 sequence (Q91XE4 1-318): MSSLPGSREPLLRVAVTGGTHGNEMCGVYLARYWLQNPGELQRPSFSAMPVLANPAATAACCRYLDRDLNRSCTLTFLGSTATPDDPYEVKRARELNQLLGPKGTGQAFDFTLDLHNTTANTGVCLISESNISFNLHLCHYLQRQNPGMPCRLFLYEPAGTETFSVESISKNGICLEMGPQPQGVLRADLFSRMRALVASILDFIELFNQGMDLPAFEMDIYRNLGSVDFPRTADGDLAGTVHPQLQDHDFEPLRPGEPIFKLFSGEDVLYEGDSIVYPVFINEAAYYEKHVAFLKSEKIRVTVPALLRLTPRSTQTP

[12] = substrate: CC(=O)C/C(C)=C/CC/C(C)=C/CC/C(C)=C/CC/C(C)=C/CN[C@@H](CS)C(=O)O; test: Deacetylation of NAFC and NAGGC by human AA3; type: biochemical; conditions: other: substrate of human AA3; pH 7.5
Experimental: (§5) AA3 activity was measured using a previously described fluorescence assay. Human purified AA3 (1 μg), rat AA1 (1 μg) or immunoaffinity purified AA3 from HepG2 and HuH7 cells were assayed for 30 min at […] in […] of 50 mM sodium phosphate buffer, pH 7.5, containing 1 mM NAFC or NAGGC both from Cayman Chemical (Ann Arbor, Mich.). Then 100 μl of the reaction mixture was added to 1 ml of 50 mM sodium phosphate buffer containing 1 mM fluorescamine, and fluorescence was measured (390 nm excitation, 475 nm emission).
(§6) To study the deacetylation of NAFC and NAGGC mediated by AA3, 50 μl aliquots from the reaction assays were injected onto Agilent Eclipse Plus C18 reverse phase HPLC column equilibrated with 0.1% formic acid, and eluted with acetonitrile/0.1% formic acid gradient (0-90%, 20 min). The effluent from the column was passed to an Ionspray ion source connected to a triple quadrupole mass-spectrometer (MS) API III+(PerkinElmer, Boston, Mass.). NAFC and NAGGC (Cayman Chemical) were used for MS calibration.

[13] = substrate: CC(=O)CC(C)=CCCC(C)=CCCC(C)=CCN[C@@H](CS)C(=O)O; test: Deacetylation of NAFC and NAGGC by human AA3; type: biochemical; conditions: other: substrate of human AA3; pH 7.5
Experimental: as §5, §6

[14] = lines expressing mutant (mut) KRas
[15] = lines expressing wild type (wt) or mutant (mut) KRas

Molecule | growth of colon cancer cell lines [1, 14] | toxicity for pancreatic cancer cells [2] | toxicity for pancreatic normal cells [3] | FC level [4] | level of NAFC [4] | [FC]/[NAFC] ratio [4] | FC level decreased by [5] | level of NAFC [5] | [FC]/[NAFC] ratio [5] | level of the membrane associated Ras decreased by, % of control [6] | toxicity (cell viability) [7] | toxicity (cell viability) [8] | toxicity to normal primary hepatocytes [9] | growth of colon cancer cell lines [1, 15] | toxicity for normal vs cancer cell lines [10] | efficiency for pancreatic cell lines [2] | toxicity for normal vs cancer cell lines [3] | other results
Cc1ccc(N2C(=O)/C(=C/c3cc([N+](=O)[O-])cc(Br)c3O)SC2=S)c(C)c1 [Inhibitor 3, (5Z)-5-(3-Bromo-2-hydroxy-5-nitrobenzylidene)-3-(2,4-dimethylphenyl)-2-thioxo-1,3-thiazolidin-4-one] | suppress growth | toxic | toxic | – | – | – | – | – | – | – | – | – | – | – | – | – | – | –
O=c1nc(-c2ccccc2)sc2ccccc12 [Inhibitor 10, 2-Phenyl-4H-1,3-benzothiazin-4-one] | – | toxic | toxic | not significantly changed | significantly increased | ~1.6 | approximately 50% | significantly increased | ~0.85 | ~50% | toxic | toxic | not toxic | suppress growth | significantly less toxic | efficient | significantly less toxic | –
COc1ccc(CSc2nc3cc(S(N)(=O)=O)ccc3n2C)cc1F [Inhibitor 11, 2-[(3-Fluoro-4-methoxybenzyl)sulfanyl]-1-methyl-1H-benzimidazole-5-sulfonamide] | suppress growth | toxic | toxic | not significantly changed | significantly increased | ~2.8 | approximately 50% | significantly increased | ~0.9 | ~50% | toxic | toxic | significantly less toxic | – | – | – | – | –
Cc1ccc(-n2sc3ccccc3c2=O)cc1 [Inhibitor 21, 2-(4-methylphenyl)-1,2-benzothiazol-3-one] | – | toxic | toxic | – | – | – | – | – | – | – | – | – | – | suppress growth | significantly less toxic | efficient | significantly less toxic | –
CC(=O)N[C@@H](CSC(Cl)(Cl)C(F)F)C(=O)O [N-Acetyl-S-(2,2-difluoro-1,1-dichloroethyl)-L-cysteine] | – | – | – | – | – | – | – | – | – | – | – | – | – | – | – | – | – | Vmax, times lower than N-acetyl-S-(2,2-dichloro-1,1-difluoroethyl)-L-cysteine [11]: ~30 times; affinity, times higher than N-acetyl-S-(2,2-dichloro-1,1-difluoroethyl)-L-cysteine [11]: ~18 times
B1 | – | – | – | – | – | – | – | – | – | – | – | – | – | – | – | – | – | Km [12]: 0.14 mM; kcat [12]: 7.2 s⁻¹; Km [13]: 0.025 mM; kcat [13]: 2 s⁻¹

— patent publication US11464784B2, “Inhibition of aminocylase 3 (AA3) in the treatment of cancer” (THE REGENTS OF THE UNIVERSITY OF CALIFORNIA, priority 2017, dated 2022)
